Data taken from patent US20240368120A1 (Terns Pharmaceuticals, Inc., priority 2023, published 2024).

Molecular target: T1, human GLP-1R receptor (Homo sapiens, UniProt P43220)
T1 construct: expressed in transfected cells
Assay: GLP-1R low expression cell assay (cAMP TR-FRET, CHO-K1_hGLP-1Rlow_clone10 cells)
Format: cell-based
Details: for EC50: cAMP TR-FRET, 30 min at 25° C.; for Emax: maximum activation relative to control GLP-1 peptide agonist
Summary of the method: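 Readout is cAMP TR-FRET after 30 min compound stimulation at 25 °C of a low-GLP-1R-expressing CHO-K1 clone (1,000 cells/well), with 10-point 3-fold serial dilutions. Percent activation versus a control GLP-1 peptide, from duplicates, was Hill-fitted to give EC50.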

T1 sequence (P43220 24-463): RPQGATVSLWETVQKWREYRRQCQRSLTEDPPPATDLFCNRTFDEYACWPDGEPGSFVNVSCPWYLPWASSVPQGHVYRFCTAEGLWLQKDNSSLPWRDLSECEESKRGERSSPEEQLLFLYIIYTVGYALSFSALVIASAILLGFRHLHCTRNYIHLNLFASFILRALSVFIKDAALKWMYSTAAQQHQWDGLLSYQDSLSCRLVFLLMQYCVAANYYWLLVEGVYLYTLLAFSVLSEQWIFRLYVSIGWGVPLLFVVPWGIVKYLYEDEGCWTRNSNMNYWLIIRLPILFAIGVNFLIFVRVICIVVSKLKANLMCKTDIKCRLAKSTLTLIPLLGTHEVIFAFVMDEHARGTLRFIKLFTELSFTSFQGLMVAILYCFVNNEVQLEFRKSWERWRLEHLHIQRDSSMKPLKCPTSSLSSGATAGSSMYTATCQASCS

| Compound | EC50 | Emax |
| --- | --- | --- |
| CCOc1cc(C(=O)O)cc2c1nc(CN1CCC(c3cccc4c3O[C@H](c3ccc(C#N)cc3F)CO4)CC1)n2C [Compound 288, (R)-2-((4-(3-(4-Cyano-2-fluorophenyl)-2,3-dihydrobenzo[b][1,4]dioxin-5-yl)piperidin-1-yl)methyl)-4-ethoxy-1-methyl-1H-benzo[d]imidazole-6-carboxylic acid] | 10 to 100 nM | > 85% |
| COc1c(OCc2ccc(C#N)cc2F)cccc1C1CCN(Cc2nc3c(OC(F)F)cc(C(=O)O)cc3n2C)CC1 [Compound 144, 2-((4-(3-((4-Cyano-2-fluorobenzyl)oxy)-2-methoxyphenyl)piperidin-1-yl)methyl)-4-(difluoromethoxy)-1-methyl-1H-benzo[d]imidazole-6-carboxylic acid] | > 1000 nM | < 25% |
| CC(=O)Nc1cc(C(=O)O)cc2c1nc(CN1CCC(c3cccc(OCc4ccc(C#N)cc4F)n3)CC1)n2C [Compound 116, 4-acetamido-2-((4-(6-((4-cyano-2-fluorobenzyl)oxy)pyridin-2-yl)piperidin-1-yl)methyl)-1-methyl-1H-benzo[d]imidazole-6-carboxylic acid] | 10 to 100 nM | > 85% |
| Cn1c(CN2CCC(c3cccc(CCc4ccc(Cl)cc4)n3)CC2)nc2c(OC(F)F)cc(C(=O)O)cc21 [Compound 219, 2-((4-(6-(4-chlorophenethyl)pyridin-2-yl)piperidin-1-yl)methyl)-4-(difluoromethoxy)-1-methyl-1H-benzo[d]imidazole-6-carboxylic acid] | > 1000 nM | 25 to 50% |
| Cn1c(CN2CCC(c3cccc(OCc4ccc(Cl)cc4F)n3)CC2)nc2c(OCCF)cc(C(=O)O)cc21 [Compound 170, 2-((4-(6-((4-Chloro-2-fluorobenzyl)oxy)pyridin-2-yl)piperidin-1-yl)methyl)-4-(2-fluoroethoxy)-1-methyl-1H-benzo[d]imidazole-6-carboxylic acid] | < 10 nM | > 85% |
| CCn1c(CN2CCC(c3cccc4c3O[C@@](C)(c3ccc(Cl)cn3)O4)CC2)nc2c(OC(C)C)cc(C(=O)O)cc21 [Compound 88, (S)-2-((4-(2-(5-Chloropyridin-2-yl)-2-methylbenzo[d][1,3]dioxol-4-yl)piperidin-1-yl)methyl)-1-ethyl-4-isopropoxy-1H-benzo[d]imidazole-6-carboxylic acid] | 10 to 100 nM | > 85% |
| Cn1c(CN2CCC(c3cccc(OCc4ccc(C#N)cc4F)n3)CC2)nc2c(OC(F)(F)F)cc(C(=O)O)cc21 [Compound 125, 2-((4-(6-((4-Cyano-2-fluorobenzyl)oxy)pyridin-2-yl)piperidin-1-yl)methyl)-1-methyl-4-(trifluoromethoxy)-1H-benzo[d]imidazole-6-carboxylic acid] | 10 to 100 nM | > 85% |
| COc1cc(C(=O)O)cc2nc(CN3CCC(c4cccc(OCc5ccc(Cl)cc5F)n4)CC3)n(CF)c12 [Compound 192, 2-((4-(6-((4-Chloro-2-fluorobenzyl)oxy)pyridin-2-yl)piperidin-1-yl)methyl)-1-(fluoromethyl)-7-methoxy-1H-benzo[d]imidazole-5-carboxylic acid] | > 1000 nM | 50 to 85% |
| Cn1c(CN2CCC(n3ccc(OCc4ccc(Cl)cc4F)n3)CC2)nc2c(OC(F)F)cc(C(=O)O)cc21 [Compound 217, 2-((4-(3-((4-Chloro-2-fluorobenzyl)oxy)-1H-pyrazol-1-yl)piperidin-1-yl)methyl)-4-(difluoromethoxy)-1-methyl-1H-benzo[d]imidazole-6-carboxylic acid] | > 1000 nM | > 85% |
| [2H]C([2H])([2H])Oc1cc(C(=O)O)cc2c1nc(CN1CCC(c3cccc4c3O[C@@](C)(c3ccc(Cl)cn3)O4)CC1)n2C[C@@H]1CCO1 [Compound 98, 2-((4-((S)-2-(5-chloropyridin-2-yl)-2-methylbenzo[d][1,3]dioxol-4-yl)piperidin-1-yl)methyl)-4-(methoxy-d3)-1-(((S)-oxetan-2-yl)methyl)-1H-benzo[d]imidazole-6-carboxylic acid] | < 10 nM | > 85% |
| CCOc1cc(C(=O)O)cc2c1nc(CN1CCC(c3cccc4c3O[C@@H](c3ccc(C#N)cc3F)CO4)CC1)n2C [Compound 287, (S)-2-((4-(3-(4-Cyano-2-fluorophenyl)-2,3-dihydrobenzo[b][1,4]dioxin-5-yl)piperidin-1-yl)methyl)-4-ethoxy-1-methyl-1H-benzo[d]imidazole-6-carboxylic acid] | > 1000 nM | > 85% |
| Cn1c(CN2CCC(c3cccc(OCc4ccc(C#N)cc4F)n3)CC2)nc2c(OC(C)(F)F)cc(C(=O)O)cc21 [Compound 180, 2-((4-(6-((4-Cyano-2-fluorobenzyl)oxy)pyridin-2-yl)piperidin-1-yl)methyl)-4-(1,1-difluoroethoxy)-1-methyl-1H-benzo[d]imidazole-6-carboxylic acid] | 10 to 100 nM | > 85% |
| Cn1c(Cc2cc(F)c(-c3cccc(OCc4ccc(Cl)cc4F)n3)cc2F)nc2c(OC(F)F)cc(C(=O)O)cc21 [Compound 197, 2-(4-(6-((4-Chloro-2-fluorobenzyl)oxy)pyridin-2-yl)-2,5-difluorobenzyl)-4-(difluoromethoxy)-1-methyl-1H-benzo[d]imidazole-6-carboxylic acid] | < 10 nM | > 85% |
| COc1cc(C(=O)O)cc2c1nc(Cc1ccc(-c3cccc(OCc4ccc(Cl)cc4F)n3)cc1F)n2C [Compound 292, 2-(4-(6-((4-Chloro-2-fluorobenzyl)oxy)pyridin-2-yl)-2-fluorobenzyl)-4-methoxy-1-methyl-1H-benzo[d]imidazole-6-carboxylic acid] | < 10 nM | > 85% |
| Cn1c(CN2CCC(c3cccc4c3OC[C@H](c3ccc(C#N)cc3F)O4)CC2)nc2c(OC(F)F)cc(C(=O)O)cc21 [Compound 326, (S)-2-((4-(2-(4-Cyano-2-fluorophenyl)-2,3-dihydrobenzo[b][1,4]dioxin-5-yl)piperidin-1-yl)methyl)-4-(difluoromethoxy)-1-methyl-1H-benzo[d]imidazole-6-carboxylic acid] | > 1000 nM | < 25% |
| O=C(O)c1cc(OC(F)F)c2nc(CN3CCC(c4cccc(OCc5ccc(Cl)cc5F)n4)CC3)n(CF)c2c1 [Compound 208, 2-((4-(6-((4-Chloro-2-fluorobenzyl)oxy)pyridin-2-yl)piperidin-1-yl)methyl)-4-(difluoromethoxy)-1-(fluoromethyl)-1H-benzo[d]imidazole-6-carboxylic acid] | 10 to 100 nM | > 85% |
| Cn1c(CN2CCC(c3ccc(Cl)c(OCc4ccc(Cl)cc4F)c3)CC2)nc2c(OC(F)F)cc(C(=O)O)cc21 [Compound 194, 2-((4-(4-Chloro-3-((4-chloro-2-fluorobenzyl)oxy)phenyl)piperidin-1-yl)methyl)-4-(difluoromethoxy)-1-methyl-1H-benzo[d]imidazole-6-carboxylic acid] | 100 to 1000 nM | > 85% |
| CCCOc1cc(C(=O)O)cc2c1nc(CN1CCC(c3cccc(OCc4ccc(Cl)cc4F)n3)CC1)n2C [Compound 322, 2-((4-(6-((4-chloro-2-fluorobenzyl)oxy)pyridin-2-yl)piperidin-1-yl)methyl)-1-methyl-4-propoxy-1H-benzo[d]imidazole-6-carboxylic acid] | 10 to 100 nM | > 85% |
| O=C(O)c1cc(OC(F)F)c2nc(CN3CCC(c4cccc(OCc5ccc(Cl)cc5F)n4)CC3)n(C3CC3)c2c1 [Compound 199, 2-((4-(6-((4-Chloro-2-fluorobenzyl)oxy)pyridin-2-yl)piperidin-1-yl)methyl)-1-cyclopropyl-4-(difluoromethoxy)-1H-benzo[d]imidazole-6-carboxylic acid] | 10 to 100 nM | > 85% |
| COc1cc(C(=O)O)cc2c1nc(CN1CCC(c3cccc(OCc4cc(F)c(Cl)cc4F)n3)CC1)n2C [Compound 272, 2-((4-(6-((4-Chloro-2,5-difluorobenzyl)oxy)pyridin-2-yl)piperidin-1-yl)methyl)-4-methoxy-1-methyl-1H-benzo[d]imidazole-6-carboxylic acid] | < 10 nM | > 85% |
| COCC(F)(F)Oc1cc(C(=O)O)cc2c1nc(CN1CCC(c3cccc(OCc4ccc(Cl)cc4F)n3)CC1)n2C [Compound 227, 2-((4-(6-((4-Chloro-2-fluorobenzyl)oxy)pyridin-2-yl)piperidin-1-yl)methyl)-4-(1,1-difluoro-2-methoxyethoxy)-1-methyl-1H-benzo[d]imidazole-6-carboxylic acid] | < 10 nM | > 85% |
| COc1cc(C(=O)O)c(F)c2c1nc(CN1CCC(c3cccc(OCc4ccc(C#N)cc4F)n3)CC1)n2C[C@@H]1CCO1 [Compound 117, (S)-2-((4-(6-((4-Cyano-2-fluorobenzyl)oxy)pyridin-2-yl)piperidin-1-yl)methyl)-7-fluoro-4-methoxy-1-(oxetan-2-ylmethyl)-1H-benzo[d]imidazole-6-carboxylic acid] | < 10 nM | > 85% |
| Cn1c(CN2CCC(c3cccc(OCc4ccc(C#N)cc4F)n3)CC2)nc2c3c(c(C(=O)O)cc21)OCCO3 [Compound 289, 2-((4-(6-((4-Cyano-2-fluorobenzyl)oxy)pyridin-2-yl)piperidin-1-yl)methyl)-3-methyl-7,8-dihydro-3H-[1,4]dioxino[2′,3′:3,4]benzo[1,2-d]imidazole-5-carboxylic acid] | 100 to 1000 nM | > 85% |
| Cn1c(CN2CCC(c3cccc(OCc4ccc(C#N)cc4F)n3)CC2)nc2c(O)cc(C(=O)O)cc21 [Compound 114, 2-((4-(6-((4-Cyano-2-fluorobenzyl)oxy)pyridin-2-yl)piperidin-1-yl)methyl)-4-hydroxy-1-methyl-1H-benzo[d]imidazole-6-carboxylic acid] | < 10 nM | > 85% |
